From patent US20180312473A1, “PHENAZINE DERIVATIVES AS ANTIMICROBIAL AGENTS” (priority 2015, published 2018)
Converted amounts (≈) assume the structure as drawn. Where two headings read alike, the source gives them in different places.

Experiments:
[1] = system: MRSA-2 (methicillin-resistant Staphylococcus aureus clinical isolate); experiment: MIC assay (broth microdilution, CLSI); assay type: cell-based; conditions: Staphylococcus aureus, MRSA
[2] = system: Enterococcus faecium (ATCC 700221), VRE; experiment: MIC assay (broth microdilution, CLSI); assay type: cell-based
human red blood cells = experiment: Hemolysis assay with red blood cells; conditions: human, 1 h, 200 μM, pH 7.2
Method in brief: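 Hemolysis expressed as percent of the Triton X signal with DMSO as zero, using OD405 of supernatant. Compounds from DMSO stocks were incubated with triple-washed human erythrocytes for 1 hour at 37° C. before centrifugation; three independent experiments.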

[3] = system: VRE (E. faecium ATCC 700221) planktonic cells and biofilms; experiment: Calgary Biofilm Device (CBD) assay, MBC/MBEC; assay type: cell-based, Enterococcus faecium; conditions: c lowest concentration tested; for MBC: Enterococcus
MRSA-2 = experiment: MIC assay with Tiron or metal(II) cation co-treatment; assay type: cell-based, Staphylococcus aureus; conditions: Staphylococcus aureus; MRSA-2, 200 μM iron(II); read-out: MIC with Fe^2+
[4] = system: MRSA-2 persister cells (stationary cultures); conditions: 100 μM; for MRSA-2 stationary killing: reduction of viable cells over 24 h
[5] = system: MRSA BAA-1707 planktonic cells and biofilms; experiment: Calgary Biofilm Device (CBD) assay, MBC/MBEC; conditions: Staphylococcus aureus, read-out: MRSA BAA-1707 MBC
[6] = system: MRSA-2 planktonic cells and biofilms; experiment: Calgary Biofilm Device (CBD) assay, MBC/MBEC; assay type: cell-based, Staphylococcus aureus; conditions: Staphylococcus aureus, MRSA
[7] = system: MRSE (S. epidermidis ATCC 35984) planktonic cells and biofilms; experiment: Calgary Biofilm Device (CBD) assay, MBC/MBEC; assay type: cell-based, Staphylococcus epidermidis; conditions: for MBC: Staphylococcus epidermidis
[8] = system: S. aureus clinical isolate SA 129; experiment: MIC assay (broth microdilution, CLSI); conditions: Staphylococcus aureus, read-out: MIC, SA 129
[9] = system: S. aureus clinical isolate SA 138; experiment: MIC assay (broth microdilution, CLSI); conditions: Staphylococcus aureus, read-out: MIC, SA 138
[10] = Spectrophotometric determination of dissociation constants (pKa); assay type: physicochemical; conditions: UV-vis at varying pH, 1:1 water:methanol buffers
Method: Dissociation constants (pKa) for select analogues were determined by implementing UV-vis spectroscopy at varying pH values. Buffers were prepared using potassium phosphate monobasic (KH2PO4) and sodium phosphate dibasic (Na2HPO4) in a 1:1 solution of water:methanol to achieve a pH range of 3.78 to 10.94. Compounds were added from 10 mM stock solutions in dimethyl sulfoxide (12.5 μL) to 987.5 μL of each buffer to yield a final compound concentration of 125 μM. Full spectral scans were performed for each evaluated analogue at pH 3.78 and pH 10.94 from 300 to 800 nm to determine λmax values for the protonated phenol (HA; e.g., HP 2 below) and the deprotonated phenolate species (A^−; e.g., conjugate base of HP 2 below). The change in absorption at each determined λmax in relation to pH was then monitored in each buffer and then plotted as absorbance versus pH for each species. The pKa was first estimated by determining the pH of the point of intersection of the two linear curves as shown. The visual estimation was confirmed by plotting pH versus log [A^−/HA]. The resulting plot yielded a linear regression line with a Y-intercept corresponding to a calculated pKa value.

in vitro = assay type: cell-based; conditions: human
HeLa cells = experiment: in vitro; assay type: cell-based; conditions: human, 24 h
A. baumannii 19606 = experiment: MIC assay (broth microdilution, CLSI); assay type: cell-based, Acinetobacter baumannii; conditions: Acinetobacter baumannii, 19606; read-out: A. baumannii 19606 MIC
P. aeruginosa (PAO1) = experiment: MIC assay (broth microdilution, CLSI); assay type: cell-based; conditions: Pseudomonas aeruginosa, PAO1; read-out: PAO1 MIC
K. pneumoniae 13883 = experiment: MIC assay (broth microdilution, CLSI); assay type: cell-based, Klebsiella pneumoniae; conditions: Klebsiella pneumoniae, 13883; read-out: K. pneumoniae 13883 MIC
E. coli UAEC-1 = experiment: MIC assay (broth microdilution, CLSI); assay type: cell-based; conditions: Escherichia coli, UAEC1; read-out: E. coli UAEC-1 MIC
E. faecium 700221 (VRE) = experiment: MIC assay with Tiron or metal(II) cation co-treatment; assay type: cell-based, Enterococcus faecium; conditions: Enterococcus faecium, VRE
[11] = system: methicillin-resistant S. aureus (MRSA) strains; experiment: MIC assay, values summarised over MRSA strains; assay type: cell-based, Staphylococcus aureus
MRSA BAA-44 = experiment: MIC assay (broth microdilution, CLSI); conditions: Staphylococcus aureus, read-out: MIC, MRSA BAA-44
[12] = system: MRSA BAA-44 planktonic cells and biofilms; experiment: Calgary Biofilm Device (CBD) assay, MBC/MBEC; conditions: Staphylococcus aureus, read-out: MRSA BAA-44 MBC
[13] = system: Staphylococcus epidermidis (ATCC 12228); experiment: MIC assay (broth microdilution, CLSI); assay type: cell-based; conditions: Staphylococcus epidermidis, ATCC12228
[14] = system: Staphylococcus epidermidis (ATCC 35984), MRSE; experiment: MIC assay (broth microdilution, CLSI); assay type: cell-based; conditions: Staphylococcus epidermidis, Table 7; read-out: MIC, MRSE 35984
MRSA BAA-1707 = experiment: MIC assay (broth microdilution, CLSI); conditions: Staphylococcus aureus, read-out: MIC, MRSA BAA-1707
[15] = system: MRSA-1 (methicillin-resistant Staphylococcus aureus clinical isolate); experiment: MIC assay (broth microdilution, CLSI); assay type: cell-based; conditions: read-out: MIC, MRSA-1
[16] = system: M. tuberculosis H37Ra (ATCC 25177); experiment: Mycobacterium tuberculosis MIC assay; assay type: cell-based
Method: (§1) The culture was then diluted with fresh medium until an OD600 of 0.01 was reached. […] The final DMSO concentration was maintained at 0.5%. […] Three rows were reserved for each compound. […] OD600 absorbance was recorded using SPECTRAMAX M5 (Molecular Devices). Data obtained from three independent experiments were analyzed using Excel.
as §1, with “EXCEL.” for “Excel.”

[17] = Enterococcus faecium, Table 2B, b lowest concentration tested, read-out: MIC, Enterococcus faecium (ATCC 700221)
[18] = Table 7, b lowest concentration tested, read-out: MIC, VRE 700221
[19] = Table 8, read-out: VRE 700221 MBC
[20] = Table 8, a/b 2-/4-fold range in independent experiments, read-out: MRSA-2 MBC
[21] = Table 8, read-out: MRSE 35984 MBC
[22] = Enterococcus faecium, Table 2A, read-out: MIC, Enterococcus faecium (ATCC 700221)
[23] = Table 7, b lowest concentration tested, read-out: MIC, S. epidermidis 12228

Row | SMILES | MIC [2, 17] [µM] | MIC [2, 18] [µM] | % Hemolysis (200 μM) (human red blood cells) [%] | MBC [3, 19] [µM] | MBC [5] [µM] | MBC [6, 20] [µM] | MBC [7, 21] [µM] | melting point [°C] | MIC [2, 22] [µM] | IC50 at 24 h (in vitro) [µM] | IC50 (HeLa cells) [µM] | % Hemolysis at 200 μM (human red blood cells) [%] | growth inhibition activity against at least one MRSA strain [11] | MIC (MRSA BAA-44) [µM] | MBC [12] [µM] | MIC [13, 23] [µM] | MIC (MRSA BAA-1707) [µM] | further results
1 | CC(=O)NC[C@H]1CN(c2ccc(N3CCOCC3)c(F)c2)C(=O)O1 [Linezolid, linezolid, reference compound] | 3.13 (≈ 1.06 µg/mL) | 3.13 (≈ 1.06 µg/mL) | ≤1 | 469 (≈ 158 µg/mL) | 31.3 (≈ 10.6 µg/mL) |  |  |  |  |  |  |  |  |  |  |  |  | MIC ([1]; Table 7, a midpoint of 2-fold range, b lowest concentration tested, read-out: MIC, MRSA-2): 3.13 µM (≈ 1.06 µg/mL); MIC (MRSA-2): 6.25 µM; log reduction of MRSA-2 persisters after 3 hours ([4]; 3 hours): 2 log; MRSA-2 stationary killing [4]: ~1 log; MRSA-2 stationary killing ([4]; listed as linezolid): 1 log
2 | CCCCc1cc(Br)c(O)c2nc3ccccc3nc12 [Compound 22, 2-Bromo-4-butyl-1-hydroxyphenazine] |  | 0.78 (≈ 0.258 µg/mL) |  | 2 (≈ 0.662 µg/mL) | 46.9 (≈ 15.5 µg/mL) | 46.9 (≈ 15.5 µg/mL) | 11.7 (≈ 3.88 µg/mL) | 135 to 137 |  |  |  |  |  |  |  |  |  | MIC [8]: 1.17 µM (≈ 0.388 µg/mL); MIC [9]: 3.13 µM (≈ 1.04 µg/mL)
3 | O=[N+]([O-])c1ccc(O)cc1 [4-nitrophenol, reference compound] |  |  |  |  |  |  |  |  |  |  |  |  |  |  |  |  |  | pKa [10]: 7.62
4 | Oc1c(Br)cc(I)c2nc3ccccc3nc12 [Compound 8, 2-Bromo-4-iodo-1-hydroxyphenazine] |  | 6.25 (≈ 2.51 µg/mL) | 2.9 | 3 (≈ 1.2 µg/mL) | 23.5 (≈ 9.42 µg/mL) | 31.3 (≈ 12.6 µg/mL) | 11.7 (≈ 4.69 µg/mL) | 186 to 188 | 6.25 (≈ 2.51 µg/mL) | > 100 | > 100 | 2.9 | sub-micromolar | 1.17 (≈ 0.469 µg/mL) | 46.9 (≈ 18.8 µg/mL) |  |  | MBC ([6]; Table 4, read-out: MBC, MRSA-2): 31.3 µM (≈ 12.6 µg/mL); MIC (A. baumannii 19606): 50 µM (≈ 20.1 µg/mL); MIC (P. aeruginosa (PAO1)): > 100 µM; MIC (K. pneumoniae 13883): > 100 µM; MIC (E. coli UAEC-1): > 100 µM; MIC (E. faecium 700221 (VRE); E. faecium 700221, 200 μM CuSO4, read-out: MIC with Cu^2+): 3.13 µM; MIC (E. faecium 700221 (VRE); E. faecium 700221, 1 mM Tiron, read-out: MIC with Tiron): 3.13 µM; MIC (E. faecium 700221 (VRE); E. faecium 700221, no additive, read-out: MIC): 3.13 µM
5 | Oc1c(Br)cc(Br)c2nc3ccc(Br)cc3nc12 [Compound 18, 2,4,8-Tribromo-1-hydroxyphenazine] |  |  |  |  | 12.5 (≈ 5.41 µg/mL) | 50 (≈ 21.6 µg/mL) |  | 239 to 241 |  |  |  | 2.1 | sub-micromolar |  |  | 3.13 (≈ 1.35 µg/mL) | 0.2 (≈ 0.0866 µg/mL) | MIC [14]: 3.13 µM (≈ 1.35 µg/mL); MIC ([11]; Staphylococcus aureus, MRSA, range over the MRSA strains/isolates tested, read-out: MIC against MRSA strains): 0.15 to 0.78 µM (≈ 0.0649 to 0.338 µg/mL)
6 | Oc1c(Br)cc(Br)c2nc3cc(Br)c(Br)cc3nc12 [Compound 17, 2,4,7,8-tetrabromo-1-hydroxyphenazine] | 0.39 (≈ 0.2 µg/mL) | 0.39 (≈ 0.2 µg/mL) | ≤1 | 0.39 (≈ 0.2 µg/mL) | 6.25 (≈ 3.2 µg/mL) |  |  |  | 0.39 (≈ 0.2 µg/mL) | > 100 | > 100 |  |  | 25 (≈ 12.8 µg/mL) | 50 (≈ 25.6 µg/mL) | 0.08 (≈ 0.0409 µg/mL) | 12.5 (≈ 6.4 µg/mL) | MIC ([1]; read-out: MIC, MRSA-2): 6.25 µM (≈ 3.2 µg/mL); MIC ([1]; read-out: MIC, MRSA-2, Table 2B, a midpoint of 2-fold range, * partial growth inhibition at highest concentration): 6.25 µM (≈ 3.2 µg/mL); MIC ([1]; read-out: MIC, MRSA-2, Table 7, a midpoint of 2-fold range, b lowest concentration tested): 6.25 µM (≈ 3.2 µg/mL); MIC ([15]; Staphylococcus aureus, MRSA): 12.5 µM (≈ 6.4 µg/mL); MIC ([15]; Table 2B, b lowest concentration tested): 12.5 µM (≈ 6.4 µg/mL); MIC ([13]; Table 2A, read-out: MIC, Staphylococcus epidermidis (ATCC 12228)): 0.05 to 0.1 µM (≈ 0.0256 to 0.0512 µg/mL); MIC ([16]; Mycobacterium tuberculosis, 168 h, M. tuberculosis H37Ra, 7 days, read-out: Mtb MIC): > 50 µM; MIC ([16]; Mycobacterium tuberculosis, Table 7, read-out: MIC, M. tuberculosis H37Ra): > 50 µM; MIC ([16]; Table 7, read-out: MIC, M. tuberculosis H37Ra): >50 µM; MBC ([7]; read-out: MBC, Staphylococcus epidermidis (ATCC 35984)): 1.56 µM (≈ 0.798 µg/mL); MBC ([7]; read-out: MRSE 35984 MBC): 1.56 µM (≈ 0.798 µg/mL); MBC ([7]; read-out: MRSE MBC): 1.56 µM (≈ 0.798 µg/mL); MBEC, Staphylococcus epidermidis (ATCC 35984) ([7]; Table 4): 6.25 µM; MRSE MBEC ([7]; Table 5): 6.25 µM; MBC ([3]; Table 5, read-out: VRE MBC): 0.39 µM (≈ 0.2 µg/mL); VRE MBEC ([3]; Table 5): 0.39/0.39 μM
